{"source": "patent US20130079526A1", "about": "“Synthesis of Chirally Purified Substituted Benzothiazole Diamines” (priority 2010, published 2013)", "key": {"monkeys": {"tested_on": "monkeys", "conditions": "single oral dose; cited from earlier work"}, "rodents [1]": {"tested_on": "rodents"}, "human subjects": {"tested_on": "human subjects", "conditions": "cited from earlier work"}, "humans": {"tested_on": "humans", "conditions": "dose as low as; cited from earlier work"}, "dogs": {"tested_on": "dogs", "conditions": "single oral dose, and above; cited from earlier work"}, "rodents [2]": {"tested_on": "rodents", "conditions": "single oral dose, and above; cited from earlier work"}}}
{"smiles": "CCCN[C@H]1CCc2nc(N)sc2C1", "note": "[pramipexole, (6S)-4,5,6,7-tetrahydro-N6-propyl-2,6-benzothiazole-diamine]", "values": [{"measurement": "dose at which major excitation was displayed", "setting": "monkeys", "result": 3.5, "unit": "mg/kg"}, {"measurement": "equivalent human dose of the rodent lethal dose", "setting": "rodents [1]; human equivalent", "result": "7 to 12", "unit": "mg/kg"}, {"measurement": "equivalent human dose of the rodent lethal dose for a 70 kg individual", "setting": "rodents [1]; rodents, in vivo", "result": "500 to 850", "unit": "mg"}, {"measurement": "initial single dose not tolerated", "setting": "human subjects", "result": "greater than 0.20 mg"}, {"measurement": "dose shown to cause somnolence", "setting": "humans", "result": 1.5, "unit": "mg"}, {"measurement": "dose at which vomiting occurred", "setting": "dogs", "result": "≥ 0.0007", "unit": "mg/kg"}, {"measurement": "dose at which death occurred", "setting": "rodents [2]", "result": "70 to 105", "unit": "mg/kg"}]}
